Laboratory results as given in paper PMC3869726, “Inhibition of Human Neutrophil Elastase by Pentacyclic Triterpenes” (PLoS ONE, 2013).
Where “and” joins values, the source holds several entries; their conditions need not be identical. Equal entries are not always repeated.

Tests used:
[1] = molecular target: T1, Human neutrophil elastase (HNE) (Homo sapiens, UniProt P08246); test: HNE activity inhibitory bioassay (MeO-Suc-Ala-Ala-Pro-Val-pNA hydrolysis, absorbance 405 nm); type: biochemical; conditions: for Anti-HNE activity, inhibitory ratio: n = 3; for IC50: in vitro HNE assay, read-out: IC50, HNE inhibition; for inhibition at 100 µM: tetracyclic triterpenoids (Table S3)
T1 construct: HNE (EC 3.4.21.37) from human leukocytes was purchased; purchased Innovative Research Company (Novi, Michigan); host or cells: human leukocytes (natural source)
T1 sequence (P08246 30-247 limits assumed): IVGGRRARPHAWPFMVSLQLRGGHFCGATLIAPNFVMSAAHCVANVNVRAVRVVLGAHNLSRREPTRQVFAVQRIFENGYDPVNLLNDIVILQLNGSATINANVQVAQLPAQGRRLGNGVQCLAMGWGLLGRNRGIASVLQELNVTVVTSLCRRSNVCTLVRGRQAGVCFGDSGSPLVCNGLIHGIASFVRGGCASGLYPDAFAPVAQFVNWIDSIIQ

HNE = molecular target: T2, HNE (Homo sapiens, UniProt P08246); test: 1H NMR spin-lattice relaxation rates (Rns, Rse) of ligand with and without HNE; type: binding; conditions: pH 7.0, 298 K;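 note: ligand in d6-DMSO with 50 mM phosphate buffer, selective and nonselective spin-lattice rates from an inversion-recovery pulse sequence, computed by initial-rate approximation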
T2 construct: HNE (EC 3.4.21.37) from human leukocytes was purchased; purchased Innovative Research Company (Novi, Michigan); host or cells: human leukocytes (natural source)
T2 sequence (P08246 30-247 limits assumed): T1 sequence (P08246 30-247 limits assumed)

[2] = test system: acute smoke-induced airway inflammation in mice; test: Acute smoke-induced lung (airway) inflammation model in mice, BALF analysis
[3] = molecular target: T1, Human neutrophil elastase (HNE); test: Enzyme inhibition kinetic analysis of HNE (Michaelis-Menten / Lineweaver-Burk); type: biochemical
[4] = smoke exposure, 50 mg/kg intraperitoneal

Compound: CC1(C)[C@@H](O)CC[C@]2(C)[C@H]3C(=O)C=C4[C@@H]5C[C@@](C)(C(=O)O)CC[C@]5(C)CC[C@@]4(C)[C@]3(C)CC[C@@H]12 [Compound 3, glycyrrhetinic acid]
- Anti-HNE activity, inhibitory ratio ([1]; 1 µM compound): 0.06±6.40%
- Anti-HNE activity, inhibitory ratio ([1]; 3 µM compound): 1.05±5.24%
- Anti-HNE activity, inhibitory ratio ([1]; 10 µM compound): 21.09±4.96%
- Anti-HNE activity, inhibitory ratio ([1]; 30 µM compound): 45.84±0.41 %
- Anti-HNE activity, inhibitory ratio ([1]; 100 µM compound): 75.20±2.89 %
- IC50 [1]: ~36.9 µM
- Rns/Rse, proton H3 (HNE; free ligand 1 mM): 0.96
- Rns/Rse, proton H5 (HNE; free ligand 1 mM): 0.92
- Rns/Rse, proton H12 (HNE; free ligand 1 mM): 0.94
- Rns/Rse, proton H18 (HNE; free ligand 1 mM): 2.29
- Rns/Rse, proton H3 (HNE; ligand 1 mM + HNE 5 µM): 0.74
- Rns/Rse, proton H5 (HNE; ligand 1 mM + HNE 5 µM): 0.84
- Rns/Rse, proton H12 (HNE; ligand 1 mM + HNE 5 µM): 0.85
- Rns/Rse, proton H18 (HNE; ligand 1 mM + HNE 5 µM): 0.81

Compound: CC(C)=CCCC1(C)CCC2(C)C3CCC4(C)C(C)C(=O)CCC4C3(C)CCC2(C)C1 (stereo not drawn) [Compound 10]
- inhibition at 100 µM [1]: 2.33%

Compound: C[C@H]1[C@H](C)CC[C@]2(C(=O)O)CC[C@]3(C)C(=CC[C@@H]4[C@@]5(C)CC[C@H](O)C(C)(C)[C@@H]5CC[C@]43C)[C@H]12 [Compound 1, ursolic acid]
- Anti-HNE activity, inhibitory ratio ([1]; 1 µM compound): 12.22±6.64%
- Anti-HNE activity, inhibitory ratio ([1]; 1 µM compound, listed as Ursolic acid (1)): 12.2%
- Anti-HNE activity, inhibitory ratio ([1]; 3 µM compound): 36.47±5.75 %
- Anti-HNE activity, inhibitory ratio ([1]; 10 µM compound): 80.84±3.14 %
- Anti-HNE activity, inhibitory ratio ([1]; 30 µM compound): 82.98±5.67 %
- Anti-HNE activity, inhibitory ratio ([1]; 30 µM compound, listed as ursolic acid): more than 80%
- Anti-HNE activity, inhibitory ratio ([1]; 100 µM compound): 88.47±2.96 %
- IC50 [1]: 5.51 µM and ~5.51 µM
- inhibition of the smoke-induced increase in BALF NE ([2]; 50 mg/kg intraperitoneal): 54%
- inhibition of the smoke-induced increase in BALF TNF-α ([2]; 50 mg/kg intraperitoneal): 38%
- dose with significant inhibition of BALF TNF-α ([2]; doses 10, 30, 100 mg/kg, dose-dependent): ≥ 10 mg/kg
- dose with significant inhibition of BALF NE ([2]; doses 10, 30, 100 mg/kg, dose-dependent, P<0.05): 30 mg/kg
- levels of BALF NE and TNF-α in vivo ([2]; smoke exposure): significantly suppressed
- number of neutrophils in BALF [2, 4]: significantly reduced
- number of total leukocytes in BALF [2, 4]: significantly reduced
- Rns/Rse, proton H3 (HNE; free ligand 1 mM): 0.93
- Rns/Rse, proton H12 (HNE; free ligand 1 mM): 0.88
- Rns/Rse, proton H18 (HNE; free ligand 1 mM): 0.92
- Rns/Rse, proton H3 (HNE; ligand 1 mM + HNE 5 µM): 0.73
- Rns/Rse, proton H12 (HNE; ligand 1 mM + HNE 5 µM): 0.62
- Rns/Rse, proton H18 (HNE; ligand 1 mM + HNE 5 µM): 0.81
- mode of HNE inhibition with respect to substrate ([3]; 0, 3, 10 µM ursolic acid, six substrate concentrations 0.2-2 mM, 37°C): competitively inhibits HNE
- apparent maximum velocity Vmax′, trend ([3]; as a function of ursolic acid concentration 0-10 µM, P>0.05): invariable
- apparent Michaelis-Menten constant Kapp, trend ([3]; ursolic acid increasing from 0 µM to 10 µM, P<0.05): increased

Compound: COC(=O)[C@]12CCC(C)(C)C[C@H]1[C@H]1C(=O)C=C3[C@@]4(C)C=C(C#N)C(=O)C(C)(C)[C@@H]4CC[C@@]3(C)[C@]1(C)CC2 [CDDO-Me, C-28 methyl ester of 2-cyano-3,12-dioxoolen-1,9-dien-28-oic acid, reference compound]
- IC50 [1]: 16.6 µM

Compound: CC(=O)OC1CC(O)C23COC(O)C1(C)C2CC(O)C1(C)C3C(=O)C(OC(C)=O)C2(C)C(c3ccoc3)CC3OC321 (stereo not drawn) [Compound 11]
- inhibition at 100 µM [1]: 4.28%

Compound: CC(C)=CCCC(C)(OC1OC(CO)C(O)C(O)C1O)C1CCC2(C)C1C(O)CC1C3(C)CCC(O)C(C)(C)C3C(OC3OC(CO)C(O)C(O)C3OC3OC(C)C(O)C(O)C3O)CC12C (stereo not drawn) [Compound 8]
- inhibition at 100 µM [1]: 4.01%

Compound: C=C(C)[C@@H]1CC[C@]2(C(=O)O)CC[C@]3(C)[C@H](CC[C@@H]4[C@@]5(C)CC[C@H](O)C(C)(C)[C@@H]5CC[C@]43C)[C@@H]12 [Compound 5, betulinic acid]
- Anti-HNE activity, inhibitory ratio ([1]; 1 µM compound): 8.25±1.88%
- Anti-HNE activity, inhibitory ratio ([1]; 3 µM compound): 46.57±2.47 %
- Anti-HNE activity, inhibitory ratio ([1]; 10 µM compound): 74.20±2.32 %
- Anti-HNE activity, inhibitory ratio ([1]; 30 µM compound): 80.58±2.21 %
- Anti-HNE activity, inhibitory ratio ([1]; 30 µM compound, listed as betulinic acid): more than 80%
- Anti-HNE activity, inhibitory ratio ([1]; 100 µM compound): 82.41±1.37 %
- IC50 [1]: ~6.83 µM
- Rns/Rse, proton H13 (HNE; free ligand 1 mM): 1.51
- Rns/Rse, proton H19 (HNE; free ligand 1 mM): 0.82
- Rns/Rse, proton H24 (HNE; free ligand 1 mM): 1.02
- Rns/Rse, proton H29a (HNE; free ligand 1 mM): 0.96
- Rns/Rse, proton H29b (HNE; free ligand 1 mM): 0.97
- Rns/Rse, proton H13 (HNE; ligand 1 mM + HNE 5 µM): 0.97
- Rns/Rse, proton H19 (HNE; ligand 1 mM + HNE 5 µM): 0.79
- Rns/Rse, proton H24 (HNE; ligand 1 mM + HNE 5 µM): 0.95
- Rns/Rse, proton H29a (HNE; ligand 1 mM + HNE 5 µM): 0.95
- Rns/Rse, proton H29b (HNE; ligand 1 mM + HNE 5 µM): 0.96

Compound: CC(C)(C)C(=O)Oc1ccc(S(=O)(=O)Nc2ccccc2C(=O)NCC(=O)O)cc1 [ONO-5046, Sivelestat sodium hydrate, reference compound]
- smoke-induced increase in BALF inflammatory cells and proinflammatory cytokine levels ([2]; intraperitoneal, positive control): prevented

Compound: C=C(C)[C@@H]1CC[C@]2(C)CC[C@]3(C)[C@H](CC[C@@H]4[C@@]5(C)CC[C@H](O)C(C)(C)[C@@H]5CC[C@]43C)[C@@H]12 [Compound 6, lupeol]
- Anti-HNE activity, inhibitory ratio ([1]; 1 µM compound): 9.38±6.80%
- Anti-HNE activity, inhibitory ratio ([1]; 3 µM compound): 19.01±10.00 %
- Anti-HNE activity, inhibitory ratio ([1]; 10 µM compound): 51.92±15.22 %
- Anti-HNE activity, inhibitory ratio ([1]; 30 µM compound): 88.00±6.26 %
- Anti-HNE activity, inhibitory ratio ([1]; 30 µM compound, listed as lupeol): more than 80%
- Anti-HNE activity, inhibitory ratio ([1]; 100 µM compound): 93.56±1.19 %
- IC50 [1]: ~8.2 µM
- Rns/Rse, proton H13 (HNE; free ligand 1 mM): 1.67
- Rns/Rse, proton H19 (HNE; free ligand 1 mM): 1.03
- Rns/Rse, proton H24 (HNE; free ligand 1 mM): 1.03
- Rns/Rse, proton H29a (HNE; free ligand 1 mM): 1.23
- Rns/Rse, proton H29b (HNE; free ligand 1 mM): 1.24
- Rns/Rse, proton H13 (HNE; ligand 1 mM + HNE 5 µM): 1.27
- Rns/Rse, proton H19 (HNE; ligand 1 mM + HNE 5 µM): 1.00
- Rns/Rse, proton H24 (HNE; ligand 1 mM + HNE 5 µM): 1.03
- Rns/Rse, proton H29a (HNE; ligand 1 mM + HNE 5 µM): 1.23
- Rns/Rse, proton H29b (HNE; ligand 1 mM + HNE 5 µM): 1.22

Compound: CC1(C)[C@@H](O[C@H]2O[C@H](C(=O)O)[C@@H](O)[C@H](O)[C@H]2O[C@@H]2O[C@H](C(=O)O)[C@@H](O)[C@H](O)[C@H]2O)CC[C@]2(C)[C@H]3C(=O)C=C4[C@@H]5C[C@@](C)(C(=O)O)CC[C@]5(C)CC[C@@]4(C)[C@]3(C)CC[C@@H]12 [Compound 4, glycyrrhizin]
- Anti-HNE activity, inhibitory ratio ([1]; 1 µM compound): 10.25±1.73%
- Anti-HNE activity, inhibitory ratio ([1]; 3 µM compound): 19.00±6.99 %
- Anti-HNE activity, inhibitory ratio ([1]; 10 µM compound): 28.21±4.84 %
- Anti-HNE activity, inhibitory ratio ([1]; 30 µM compound): 40.89±1.28 %
- Anti-HNE activity, inhibitory ratio ([1]; 100 µM compound): 78.66±1.99 %
- IC50 [1]: ~27.6 µM
- Rns/Rse, proton H9 (HNE; free ligand 1 mM): 0.64
- Rns/Rse, proton H12 (HNE; free ligand 1 mM): 0.87
- Rns/Rse, proton glc-H1’ (HNE; free ligand 1 mM): 0.54
- Rns/Rse, proton glc-H1” (HNE; free ligand 1 mM): 0.49
- Rns/Rse, proton H9 (HNE; ligand 1 mM + HNE 5 µM): 0.64
- Rns/Rse, proton H12 (HNE; ligand 1 mM + HNE 5 µM): 0.74
- Rns/Rse, proton glc-H1’ (HNE; ligand 1 mM + HNE 5 µM): 0.31
- Rns/Rse, proton glc-H1” (HNE; ligand 1 mM + HNE 5 µM): 0.47

Compound: CC(C)(O)[C@@H]1CC[C@](C)([C@H]2[C@@H](O)C[C@@]3(C)[C@@H]4C[C@H](O[C@@H]5O[C@H](CO)[C@@H](O)[C@H](O)[C@H]5O)[C@H]5C(C)(C)[C@@H](O[C@@H]6OC[C@@H](O)[C@H](O)[C@H]6O)CC[C@@]56C[C@@]46CC[C@]23C)O1 [Compound 7, astragaloside IV]
- inhibition at 100 µM [1]: 3.27%
- levels of BALF NE and TNF-α in vivo ([2]; smoke exposure): did not observe the inhibitory effects
- airway inflammation ([2]; smoke exposure, intraperitoneal, negative control): did not inhibit

Compound: CC(=O)OC(C)(C)/C=C/C(=O)[C@](C)(O)[C@H]1[C@H](O)C[C@@]2(C)[C@@H]3CC=C4[C@@H](C[C@H](O)C(=O)C4(C)C)[C@]3(C)C(=O)C[C@]12C [Compound 9]
- inhibition at 100 µM [1]: 5.77%

Compound: CC(C)C1=CC(=O)C(C)(C2[C@H](O)C[C@@]3(C)[C@@H]4CC=C5[C@@H](CC[C@@H](OC6OCC(O)C(O)C6OC6OC(C)C(O)C(O)C6O)C5(C)C)[C@]4(C)C(=O)C[C@]23C)O1 (stereo partly drawn) [Compound 12]
- inhibition at 100 µM [1]: 0.8%
